According to patent publication US10034824B2, “Hair shaping composition” (Conopco, Inc., priority 2014, dated 2018):

Assay: Hair switch volume-down test (switches dosed, combed straight, dried overnight, imaged)
Procedure: Dark brown European wavy#6 switches of length 25 cm and weight 2 gms (from the same batch of switches), were dosed with 0.2 ml of a 2% solution of monoglucosamine adipate. Control switches were treated with water.
All switches were combed straight and left to dry overnight.
When dry the switches were combed straight and pictures taken. […] The percentage benefit (i.e. decrease in volume) with respect to control (water) is also given.

[1] = 0.2 ml of a 2% solution on 25 cm, 2 gms switches, combed straight, dried overnight

Substance: monoglucosamine adipate
- % benefit (decrease in volume with respect to control (water)) [1]: 8.0%
- Volume (projection of the switch image on to the screen) [1]: 13047 mm^2
- hair volume-down benefit (2% solution vs water control, result in words): significant hair volume-down benefit
